According to the NIST ThermoML archive (doi:10.1016/j.jct.2004.12.003):
± gives the expanded uncertainty stated by the source.

How the values were obtained:
[1] = Liquid; for mass density: 293.15 K, 101.33 kPa
[2] = refractive index (Na D-line) (dimensionless); conditions: 293.15 K; 101.33 kPa; Liquid; Standard Abbe refractometry

Row | SMILES | mass density [1] [kg/m3] | Normal boiling temperature [1] [°C] | refractive index [2]
1 | COC(=O)c1ccccc1C(=O)OC [dimethyl 1,2-benzenedicarboxylate] | 1191 ± 0.8 | 283.93 ± 0.08 | 1.514 ± 0.0011
2 | CCC(=O)O [propanoic acid] | 992.7 ± 0.5 | 141.0 ± 0.08 | 1.3811 ± 0.0011
